Patent publication US10654816B2, “Compounds and compositions for treating conditions associated with NLRP activity” (NOVARTIS INFLAMMASOME RESEARCH, INC., priority 2017, dated 2020)

Each compound was assayed on IL-1β production in PMA-differentiated THP-1 cells (assay: IL-1β production in PMA-differentiated THP-1 cells stimulated with gramicidin (hTHP-1 assay, HTRF readout; Procedures 1-3)). Conditions: Homo sapiens, THP-1, hTHP-1 assay containing 2% fetal bovine serum; average; class symbols; read-out: hTHP-1 IC50 (Average IC50 of compounds in hTHP-1 assay).
Format: cell-based, human
Procedure, shortened: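 PMA-differentiated (20 ng/ml, 16-18 h) THP-1 cells in RPMI with 2% FBS, 50,000 cells/well, preincubated 1 h with compound (final 0.0017-100 μM, 0.37% DMSO), then stimulated with 5 μM gramicidin for 2 h. IL-1β in cell-free supernatant measured by HTRF (620/668 nm).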

| IC50 [nM] | Compound |
| --- | --- |
| 1000 to 5000 | Cc1cc(C(C)(C)O)ccc1S(N)(=O)=NC(=O)Nc1c2c(cc3c1CCC3)CCC2 (stereo not shown) [Example 19, N′-(1,2,3,5,6,7-hexahydro-s-indacen-4-ylcarbamoyl)-4-(2-hydroxypropan-2-yl)-2-methylbenzenesulfonimidamide] |
| 40 to 200 | CC(C)(O)c1csc(S(N)(=O)=NC(=O)Nc2c3c(c(C#N)c4c2CCC4)CCC3)c1 (stereo not shown) [Example 26, N′-(8-cyano-1,2,3,5,6,7-hexahydro-s-indacen-4-ylcarbamoyl)-4-(2-hydroxypropan-2-yl)thiophene-2-sulfonimidamide] |
| 200 to 1000 | CC(C)(O)c1ncc(S(N)(=O)=NC(=O)Nc2c3c(c(OC(F)F)c4c2CCC4)CCC3)s1 (stereo not shown) [Example 27, N′-(8-(difluoromethoxy)-1,2,3,5,6,7-hexahydro-s-indacen-4-ylcarbainoyl)-2-(2-hydroxypropan-2-yl)thiazole-5-sulfonimidamide] |
| 40 to 200 | Cc1oc(S(N)(=O)=NC(=O)Nc2c(C(C)C)cc(C#N)c(F)c2C(C)C)cc1C(C)(C)O (stereo not shown) [Example 33, N′-(4-cyano-3-fluoro-2,6-diisopropylphenylcarbamoyl)-4-(2-hydroxypropan-2-yl)-5-methylfuran-2-sulfonimidamide] |
| 1000 to 5000 | CC(C)(O)c1cccc(S(N)(=O)=NC(=O)Nc2c3c(c(F)c4c2CCC4)CCC3)c1 (stereo not shown) [Example 34, N′-(8-fluoro-1,2,3,5,6,7-hexahydro-s-indacen-4-ylcarbamoyl)-3-(2-hydroxypropan-2-yl)benzenesulfonimidamide] |
| 40 to 200 | CC(C)c1cc(F)cc(C(C)C)c1NC(=O)N=S(N)(=O)c1cc(C(C)(C)O)cs1 (stereo not shown) [Example 40, N′-(4-fluoro-2,6-diisopropylphenylcarbamoyl)-4-(2-hydroxypropan-2-yl)thiophene-2-sulfonimidamide] |
| 40 to 200 | CC(C)(O)c1ncc(S(N)(=O)=NC(=O)Nc2c3c(c(C#N)c4c2CCC4)CCC3)s1 (stereo not shown) [Example 43, N′-(8-cyano-1,2,3,5,6,7-hexaliydro-s-indacen-4-ylcarbamoyl)-2-(2-hydroxypropan-2-yl)thiazole-5-sulfonimidamide] |
| 1000 to 5000 | CC(C)(O)c1cccc(S(N)(=O)=NC(=O)Nc2c3c(cc4c2CCC4)CCC3)c1 (stereo not shown) [Example 46, N′-(1,2,3,5,6,7-hexahydro-s-indacen-4-ylcarbamoyl)-3-(2-hydroxypropan-2-yl)benzenesulfonimidamide] |
| 200 to 1000 | CC(C)(O)c1ccc(S(N)(=O)=NC(=O)Nc2c3c(c(F)c4c2CCC4)CCC3)c(F)c1 (stereo not shown) [Example 47, 2-fluoro-N′-(8-fluoro-1,2,3,5,6,7-hexahydro-s-indacen-4-ylcarbamoyl)-4-(2-hydroxypropan-2-yl)benzenesulfonimidamide] |
| 1000 to 5000 | CN(C)Cc1cccc(S(N)(=O)=NC(=O)Nc2c3c(cc4c2CCC4)CCC3)c1 (stereo not shown) [Example 51, 3-((dimethylamino)methyl)-N′-(1,2,3,5,6,7-hexahydro-s-indacen-4-ylcarbamoyl)benzene-sulfonimidamide] |
| 200 to 1000 | CC(C)(O)c1ccc(F)c(S(N)(=O)=NC(=O)Nc2c3c(c(F)c4c2CCC4)CCC3)c1 (stereo not shown) [Example 55, 2-fluoro-N′-((8-fluoro-1,2,3,5,6,7-hexahydro-s-indacen-4-yl)carbamoyl)-5-(2-hydroxypropan-2-yl)benzenesulfonimidamide] |
| 1000 to 5000 | CC(C)(O)c1nc(CO)c(S(N)(=O)=NC(=O)Nc2c3c(c(C#N)c4c2CCC4)CCC3)s1 (stereo not shown) [Example 69, N′-((8-cyano-1,2,3,5,6,7-hexahydro-s-indacen-4-yl)carbamoyl)-4-(hydroxymethyl)-2-(2-hydroxypropan-2-yl)thiazole-5-sulfonimidamide] |

More lines, now with the values behind:

| Compound | IC50 [nM] |
| --- | --- |
| CC(C)c1cc(OC(F)F)cc(C(C)C)c1NC(=O)N=S(N)(=O)c1sc(C(C)(C)O)cc1F (stereo not shown) [Example 17, N′-(4-(difluoromethoxy)-2,6-diisopropylphenylcarbamoyl)-3-fluoro-5-(2-hydroxypropan-2-yl)thiophene-2-sulfonimidamide] | 8 to 40 |
| CCc1cc(OC(F)F)cc(C(C)C)c1NC(=O)N=S(N)(=O)c1cnc(C(C)(C)O)s1 (stereo not shown) [Example 18, N′-(4-(difluoromethoxy)-2-ethyl-6-isopropylphenylcarbamoyl)-2-(2-hydroxypropan-2-yl)thiazole-5-sulfonimidamide] | 200 to 1000 |
| CC(C)c1cc(F)cc(C(C)C)c1NC(=O)N=S(N)(=O)c1cccc(C(C)(C)O)c1 (stereo not shown) [Example 22, N′-(4-fluoro-2,6-diisopropylphenylcarbamoyl)-3-(2-hydroxypropan-2-yl)benzenesulfonimidamide] | 1000 to 5000 |
| Cc1cc(C(C)(C)O)sc1S(N)(=O)=NC(=O)Nc1c(C(C)C)cc(OC(F)F)cc1C(C)C (stereo not shown) [Example 24, N′-(4-(difluoromethoxy)-2,6-diisopropylphenylcarbamoyl)-5-(2-hydroxypropan-2-yl)-3-methylthiophene-2-sulfonimidamide] | 1000 to 5000 |
| Cc1cc(C(C)(C)O)ccc1S(N)(=O)=NC(=O)Nc1c(C(C)C)cc(OC(F)F)cc1C1CC1 (stereo not shown) [Example 29, N′-(2-cyclopropyl-4-(difluoromethoxy)-6-isopropylphenylcarbamoyl)-4-(2-hydroxypropan-2-yl)-2-methylbenzenesulfonimidamide] | 5000 to 30000 |
| CC(C)c1cc(C#N)cc(C(C)C)c1NC(=O)N=S(N)(=O)c1ncc(C(C)(C)O)s1 (stereo not shown) [Example 35, N′-(4-cyano-2,6-diisopropylphenylcarbamoyl)-5-(2-hydroxypropan-2-yl)thiazole-2-sulfonimidamide] | 200 to 1000 |
| CC(C)c1cc(F)cc(C(C)C)c1NC(=O)N=S(N)(=O)c1ccc(CN(C)C)cc1 (stereo not shown) [Example 36, 4-((dimethylamino)methyl)-N′-(4-fluoro-2,6-diisopropylphenylcarbamoyl)-benzenesulfoniniidamide] | 1000 to 5000 |
| CC(C)c1cc(OC(F)F)cc(C2CC2)c1NC(=O)N=S(N)(=O)c1ccc(CN(C)C)cc1 (stereo not shown) [Example 37, N′-(2-cyclopropyl-4-(difluoromethoxy)-6-isopropylphenylcarbamoyl)-4-((dimethylamino)methyl)benzene sulfonimidamide] | 1000 to 5000 |
| CC(C)c1cc(F)cc(C(C)C)c1NC(=O)N=S(N)(=O)c1ncc(C(C)(C)O)s1 (stereo not shown) [Example 39, N′-(4-fluoro-2,6-diisopropylphenylcarbamoyl)-5-(2-hydroxypropan-2-yl)thiazole-2-sulfonimidamide] | 200 to 1000 |
| CC(C)c1cc(F)cc(C(C)C)c1NC(=O)N=S(N)(=O)c1ccc(S(C)(=O)=O)cc1 (stereo not shown) [Example 42, N′-(4-fluoro-2,6-diisopropylphenylcarbamoyl)-4-(methylsulfonyl)benzenesulfonim idamide] | 5000 to 30000 |
| CC(C)c1cc(OC(F)F)cc(C2CC2)c1NC(=O)N=S(N)(=O)c1ccc(C(C)(C)O)cc1F (stereo not shown) [Example 54] | 1000 to 5000 |
| CC(C)c1cc(F)cc(C(C)C)c1NC(=O)N=S(N)(=O)c1cccc(S(C)(=O)=O)c1 (stereo not shown) [Example 63, N′-((4-fluoro-2,6-diisopropylphenyl)carbaoyl)-3-(methylsulfonyl)benzenesulfonim idamide] | 1000 to 5000 |
| CC(C)c1cc(C#N)cc(C(C)C)c1NC(=O)N=S(N)(=O)c1sc(C(C)(C)O)cc1F (stereo not shown) [Example 65, N′-((4-cyano-2,6-diisopropylphenyl)carbaoyl)-3-fluoro-5-(2-hydroxypropan-2-yl)thiophene-2-sulfonimidamide] | 40 to 200 |
| CC(C)c1cc(C#N)cc(C(C)C)c1NC(=O)N=S(N)(=O)c1cc(C(C)(C)O)cc(C(C)(C)O)c1 (stereo not shown) [Example 66, N′-((4-cyano-2,6-diisopropylphenyl)carbaoyl)-3,5-bis(2-hydroxypropan-2-yl)benzenesulfonimidamide] | 5000 to 30000 |
| CC(C)c1cc(C#N)cc(C(C)C)c1NC(=O)N=S(N)(=O)c1ccc(C(C)(C)O)c(CO)c1 (stereo not shown) [Example 68, N′-((4-cyano-2,6-diisopropylphenyl)carbaoyl)-3-(hydroxymethyl)-4-(2-hydroxypropan-2-yl)benzenesulfonimidamide] | 1000 to 5000 |
| CC(C)c1cc(C#N)cc(C(C)C)c1NC(=O)NS(=N)(=O)c1sc(C(C)(C)O)nc1CO (stereo not shown) [Example 70, N-((4-cyano-2,6-diisopropylphenyl)carbaoyl)-4-(hydroxymethyl)-2-(2-hydroxypropan-2-yl)thiazole-5-sulfonimidamide] | 1000 to 5000 |
| CC(C)c1cc(C#N)cc(C(C)C)c1NC(=O)N=S(N)(=O)c1ccc(S(C)(=O)=O)cc1 (stereo not shown) [Example 73, N′-((4-cyano-2,6-diisopropylphenyl)carbaoyl)-4-(methylsulfonyl)benzenesulfonim idamide] | 1000 to 5000 |
